Key:
[1] = target: Phospholipase A2, major isoenzyme (Sus scrofa) (UniProt P00592); assay: Inhibitory concentration against phospholipase A2; No inhibition
[2] = target: Protein kinase C (PKC) (Homo sapiens) (UniProt O94806+P41743+P17252+P05129+Q05655+P05771+Q05513+Q02156+P24723+Q15139+Q04759); assay: Inhibition of protein kinase C (No inhibition); type: protein assay
[3] = target: Cyclooxygenase (Homo sapiens) (UniProt P35354+P23219); assay: Inhibitory concentration against prostaglandin G/H synthase; No inhibition; type: protein assay
[4] = target: T1, Polyunsaturated fatty acid 5-lipoxygenase (Homo sapiens) (UniProt P09917); assay: Inhibitory concentration against 5-lipoxygenase was determined; No inhibition
T1 sequence (whole entry): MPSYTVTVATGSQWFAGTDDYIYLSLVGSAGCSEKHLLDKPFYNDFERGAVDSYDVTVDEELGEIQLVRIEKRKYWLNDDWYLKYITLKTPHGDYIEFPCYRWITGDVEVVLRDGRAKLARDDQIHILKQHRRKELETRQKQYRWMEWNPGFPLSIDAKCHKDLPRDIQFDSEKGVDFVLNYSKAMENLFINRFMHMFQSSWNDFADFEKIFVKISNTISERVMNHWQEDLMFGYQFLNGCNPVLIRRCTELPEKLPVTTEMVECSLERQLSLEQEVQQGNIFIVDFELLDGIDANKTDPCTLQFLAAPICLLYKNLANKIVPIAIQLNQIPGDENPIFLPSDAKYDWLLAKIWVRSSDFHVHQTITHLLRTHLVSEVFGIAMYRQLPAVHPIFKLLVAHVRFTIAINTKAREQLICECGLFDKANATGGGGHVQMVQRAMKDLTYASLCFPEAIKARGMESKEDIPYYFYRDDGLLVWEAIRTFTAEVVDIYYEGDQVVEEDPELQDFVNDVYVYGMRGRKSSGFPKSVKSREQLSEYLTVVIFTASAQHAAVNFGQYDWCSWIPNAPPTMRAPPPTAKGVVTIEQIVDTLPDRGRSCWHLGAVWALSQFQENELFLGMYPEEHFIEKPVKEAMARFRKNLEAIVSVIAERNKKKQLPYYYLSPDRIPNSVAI

[5] = Inhibitory concentration against lipid peroxidase was determined; No inhibition

Measured: Activity

Sequence of Phospholipase A2, major isoenzyme (Sus scrofa) (P00592 23-146 limits assumed): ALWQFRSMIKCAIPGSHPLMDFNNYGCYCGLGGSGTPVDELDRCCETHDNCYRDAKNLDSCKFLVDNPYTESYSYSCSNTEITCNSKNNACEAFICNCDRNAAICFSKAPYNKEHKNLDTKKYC

O=C1CCN(c2ccccc2)N1
> 300 µM: [1] | [2] | [3]

CCOC(=O)c1c2cccccc-2c2c(OCC)oc(=O)c(C#N)c12
> 300 µM: all assays above
